Measured values from patent US20060100168A1, “Method of treating cancer using adenosine and its analogs” (The Trustee of Boston University, priority 2002, published 2006).
Entries after “also recorded” stand apart in the source; their conditions may differ.

What was measured:
MCF-7 cells [1] = experiment: Cell cycle analysis by flow cytometry; assay type: cell-based, human; settings: 100 μM, except adenosine (500 μM) and inosine (1 mM); for Percentage change of diploid (G0 or G1 phase) population compared to vehicle-treated cells: first number in parentheses; for Percentage change of S phase population compared to vehicle-treated cells: second number in parentheses; for Percentage change of tetraploid (G2 or M phase) population compared to vehicle-treated cells: third number in parentheses
Procedure: (§1) Flow Cytometry and Apoptosis Analysis: Cells were detached from tissue culture plates by trypsin treatment. Cells were collected by centrifugation at 1200 g for 5 minutes and washed once with PBS. Staining of cells with propidium iodide and analysis on a flow cytometer (FACScan, Becton Dickinson, Research Triangle Park, N.C.) was performed as described before (42). Data were analyzed with CellQuest software (Becton Dickinson, Research Triangle Park, N.C.). The percentage of cells appearing with a ploidy level smaller than a diploid content was calculated as an estimate of cells undergoing apoptosis.

MCF-7 cells [2] = experiment: Anchorage-independent growth (soft agar) assay; assay type: cell-based, human; settings: for Effect on anchorage-independent growth (colony formation), in words: different concentrations
Procedure: Anchorage-independent growth (soft agar) assay: Soft agar assay was performed as described (40) with the following modifications. Ligands were added into the bottom and top agar before plating into 6-well plates. Cells were treated with trypsin (Invitrogen, Carlsbad, Calif.) for 5 minutes in a 37° C. incubator and pipetted several times so that most cells were in single cell forms. Cells were counted with a hemacytometer (Hausser Scientific/VWR, So. Plainfield, N.J.), and 10,000 cells were mixed with top agar and plated into each well. After the top agar had solidified, two ml of medium containing the same treatment was added on top of the agar. This covering medium was changed every two days during culture. After two weeks of culture, each well was counted for the number of colonies formed on an Olympus IX70 microscope under 40× optical amplification. A cell colony was defined as any cluster of cells that contain more than 3 cells. The average of counts from 3 random optical fields for each well was taken as the colony number and analyzed. Each treatment was performed in triplicates. The averages and standard deviations shown in the figures were calculated based on triplicate experiments.

MCF-7 cells [3] = experiment: Anchorage-dependent growth assay (viable cell count, Trypan Blue); assay type: cell-based, human; settings: for Cell Growth / Effect on MCF-7 cell growth, in words: MCF-7; for Cell Growth: 2 days of treatment, compounds at 100 μM, except adenosine (500 μM) and inosine (1 mM), normalized to vehicle control (set to 1), negative = decrease vs count before treatment, average ± SD, three experiments; for Effect on MCF-7 cell growth, in words: summary of Table 1 and discussion
Procedure: Anchorage-dependent growth assay: Cells were plated into 6-well plates and grown overnight before treatments. The seeding concentration of MCF-7 cells was 2×10^5/well, which was determined during preliminary experiments as not allowing the cells to reach confluency within 3 days. Cells were treated either with vehicle or ligands, as indicated. Cells were detached by incubation with trypsin (Invitrogen, Carlsbad, Calif.) and counted with a hemacytometer before or after treatment.

MCF-7 cells [4] = experiment: Apoptosis by propidium iodide staining and flow cytometry (sub-diploid events); assay type: cell-based, human; settings: 100 μM; for Apoptosis: 2 days of treatment, except adenosine (500 μM) and inosine (1 mM), number of apoptotic cells compared to vehicle control (set to 1), average ± SD; for Apoptosis, in words: two days
Procedure: as §1

[5] = system: estrogen receptor α (ERα); experiment: ERα protein level by Western blot in MCF-7 cells; assay type: cell-based, human; settings: for ERα Level: 12 hours, 100 μM, except adenosine (500 μM), Western blot quantitated, vehicle control set to 1, average of two experiments; for ERα protein level, in words: Western blot
Procedure: Western Blot Analysis: Cells were washed three times in cold 1×PBS, and collected by scraping on ice. Western blot analysis was performed as we described before with the chemiluminescence method (41). […] Cyclin A, cyclin B1 and p27 antibodies were used at 1:500 dilutions. Cyclin E antibody was used at 1:1000 dilutions.

MCF-7 cells [6] = experiment: Thymidine incorporation assay; assay type: cell-based, human; settings: treated 24 hours before thymidine
Procedure: (§2) Thymidine Incorporation Assay. Thymidine incorporation assays were performed as described (Zhang, Y., Wang, Z., and Ravid, K. The cell cycle in polyploid megakaryocytes is associated with reduced activity of cyclin B1-dependent cdc2 kinase. J Biol Chem, 271: 4266-4272, 1996) with modifications. Rat bone marrow cells were cultured in 25 cm^2 flasks at a concentration of 20×10^6 cells per 2 ml. After drug treatment for 24 hours, cells were incubated with ^3H-thymidine at a final concentration of 3 μCi/ml for 8 hours. For MCF-7 cells, cells were cultured in 6-well plates and incubated with ^3H-thymidine for 2 hours after drug treatment. Cells were divided into two portions, sixty percent of which were processed as described (Id.) to obtain tritium counts. The rest of the cells were lysed with Western blotting lysis buffer and protein concentrations were determined by Bio-Rad protein assay reagent (Bio-Rad, Hercules, Calif.). Tritium counts were normalized with corresponding protein concentrations to account for cell number variations.

[7] = system: primary rat bone marrow cells; experiment: Thymidine incorporation assay; assay type: cell-based; settings: 24 hours, IB-MECA at 100 μM
Procedure: as §2

Structure (SMILES) | Percentage change of diploid (G0 or G1 phase) population compared to vehicle-treated cells (MCF-7 cells [1]) [%] | Percentage change of S phase population compared to vehicle-treated cells (MCF-7 cells [1]) [%] | Percentage change of tetraploid (G2 or M phase) population compared to vehicle-treated cells (MCF-7 cells [1]) [%] | inhibition at 1000 µM (MCF-7 cells [2]; Homo sapiens, MCF7, 336 h, MCF-7 soft agar, 1 mM, two weeks, read-out: Inhibition of colony-forming ability) [%] | Effect on anchorage-independent growth (colony formation), in words (MCF-7 cells [2]; MCF-7 soft agar, two weeks) | Cell Growth (MCF-7 cells [3]) | Apoptosis (MCF-7 cells [4]) | ERα Level [5] | Effect on MCF-7 cell growth, in words (MCF-7 cells [3]) | Apoptosis, in words (MCF-7 cells [4]) | ERα protein level, in words [5] | Thymidine incorporation decreased to (MCF-7 cells [6]) [%] | Effect on MCF-7 cell growth, in words (MCF-7 cells [3]; listed as 2-chloror-deoxyadenosine) | Thymidine incorporation reduced to [7] [%] | Effect of A3AR antagonist on IB-MECA inhibitory effect on growth (MCF-7 cells [2]; MCF-7, antagonist up to 1 μM, not shown) | Cell Cycle Arrest (position of arrest) (MCF-7 cells [1]; flow cytometry) | Effect of nucleoside transporter inhibitor on growth inhibitory effect of IB-MECA (MCF-7 cells [3]; 10 μM) | Effect on cell growth by itself (MCF-7 cells [3]; at higher concentrations than 10 μM)
Nc1ncnc2c1ncn2[C@@H]1O[C@H](CO)[C@@H](O)[C@H]1O [Adenosine] | −25 | −56 | 97 | ~50 | dose-dependent inhibition of colony formation | 0.49 ± 0.04 | 1.06 ± 0.17 | 1.07 |  |  |  |  |  |  |  |  |  | 
Nc1nc(Cl)nc2c1ncn2[C@@H]1O[C@H](CO)[C@@H](O)[C@H]1O [CADO, 2-chloro-adenosine] | −11 | 11 | 20 |  |  | −0.02 ± 0.02 | 0.84 ± 0.6 | 0.41 | significantly inhibited cell growth | without inducing apoptosis | significantly inhibited cell growth and ERα levels |  |  |  |  |  |  | 
OC[C@H]1O[C@@H](n2cnc3c(NC4CCCC4)nc(Cl)nc32)[C@H](O)[C@@H]1O [CCPA, 2-Chloro-N^6-cyclopentyladenosine] | 3 | −18 | 11 |  | did not inhibit | 0.79 ± 0.16 | 0.49 ± 0.12 | 1.16 | no significant effect on cell growth; also recorded: did not have a significant effect |  |  |  |  |  |  |  |  | 
CCNC(=O)[C@H]1O[C@@H](n2cnc3c(N)nc(NCCc4ccc(CCC(=O)O)cc4)nc32)[C@H](O)[C@@H]1O [CGS21680, 2-p-(2-Carboxyethyl)phenethylamino-5′-N-ethylcarboxamidoadenosine] |  |  |  |  | did not inhibit |  |  |  | did not have a significant effect |  |  |  |  |  |  |  |  | 
Nc1nc(Cl)nc2c1ncn2[C@H]1C[C@H](O)[C@@H](CO)O1 [CdA, 2-chloro-2′-deoxyadenosine] | −69 | 165 | 20 |  |  | 0.13 ± 0.01 | 1.80 ± 0.17 |  |  | induced cellular apoptosis |  | 43 | significantly inhibited; also recorded: as effective at 1 μM (not shown) as at 100 μM | 32 |  |  |  | 
Nc1ncnc2c1ncn2[C@@H]1O[C@H](CO)C[C@H]1O [Cordycepin, 3′-deoxyadenosine] | −26 | 10 | 62 |  |  | 0.24 ± 6 | 0.43 ± 0.07 | 0.58 | significantly inhibited cell growth | without inducing apoptosis | significantly inhibited cell growth and ERα levels |  |  |  |  |  |  | 
OC[C@H]1O[C@@H](n2cnc3c(O)ncnc32)[C@H](O)[C@@H]1O [Inosine] | −24 | 43 | 8 |  | No effect | 0.90 ± 0.12 | 1.02 ± 0.14 |  | no significant effect on cell growth |  |  |  |  |  |  |  |  | 
CCOC(=O)C1=C(C)NC(c2ccccc2)=C(C(=O)OCc2ccccc2)C1C#Cc1ccccc1 (centres unmarked) [MRS1191] |  |  |  |  |  |  |  |  |  |  |  |  |  |  | did not abolish |  |  | 
CCNC(=O)[C@H]1O[C@@H](n2cnc3c(N)ncnc32)[C@H](O)[C@@H]1O [NECA, 5′-(N-Ethylcarboxamido)adenosine] | 0 | 3 | −3 |  | did not inhibit | 0.90 ± 0.16 | 0.99 ± 0.05 | 0.92 | no significant effect on cell growth; also recorded: did not have a significant effect |  | no significant change |  |  |  |  | Not Detectable |  | 
OCCN(CCO)c1nc(N2CCCCC2)c2nc(N(CCO)CCO)nc(N3CCCCC3)c2n1 [dipyridamole] |  |  |  |  |  |  |  |  |  |  |  |  |  |  |  |  | did not prevent the growth inhibitory effect of IB-MECA | inhibitory effect on cell growth
